Molecular target: MASP-2 CCP2-SP (Homo sapiens (Human), UniProt O00187)
Experiment: MASP-2 co-crystallization, X-ray crystallography and structure analysis (H-bonds, van der Waals contacts);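 as to Ligand-pharmacophore element distance, pharmacophore element C2: distance from averaged pharmacophore element to bound ligand; missing value means element absent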;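 as to Ligand-pharmacophore element distance, pharmacophore element C3: distance from averaged pharmacophore element to bound ligand; missing value means element absent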;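 as to Ligand-pharmacophore element distance, pharmacophore element C4: distance from averaged pharmacophore element to bound ligand; missing value means element absent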;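 as to Ligand-pharmacophore element distance, pharmacophore element C5: distance from averaged pharmacophore element to bound ligand; missing value means element absent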
Parameters: van der Waals contact distance, MASP-2 HIS 483 atom CD2 / van der Waals contact distance, MASP-2 HIS 483 atom NE2 / van der Waals contact distance, SER 654 C to compound atom / van der Waals contact distance, SER 654 O to compound atom / van der Waals contact distance, TRP 655 C to compound atom / van der Waals contact distance, MASP-2 GLY 528 atom CA / van der Waals contact distance TRP 655 atom CZ3 / van der Waals contact distance TRP 655 atom N / van der Waals contact distance TRP 655 atom CE3 / van der Waals contact distance GLY 656 atom C / van der Waals contact distance GLY 656 atom CA / van der Waals contact distance GLY 656 atom O / van der Waals contact distance, MASP-2 TYR 607 atom CD1 / van der Waals contact distance, MASP-2 PRO 606 atom O / d(C3,CA1) / d(CA1,N1)2 / d(H4,O1) / d(H4,O2) / d(O1,O2) / d(CA1,O2) / d(CA6,O1) / d(CA6,O2) / d(CA1,C5) / d(O2,H3) / d(N2,C2) / d(CA5,N2) / d(N2,C4) / d(N2,C6) / d(N2,CA3) / d(N2,O3) / d(O4,H2): unit not given beside the values
Conditions: for Ligand-pharmacophore element distance, pharmacophore element C2 / Ligand-pharmacophore element distance, pharmacophore element C3 / Ligand-pharmacophore element distance, pharmacophore element C4 / Ligand-pharmacophore element distance, pharmacophore element C5 / Ligand-pharmacophore element distance, pharmacophore element C6 / Ligand-pharmacophore element distance, pharmacophore element C7 / Ligand-pharmacophore element distance, pharmacophore element CA1 / Ligand-pharmacophore element distance, pharmacophore element CA2 / Ligand-pharmacophore element distance, pharmacophore element CA3 / Ligand-pharmacophore element distance, pharmacophore element CA4 / Ligand-pharmacophore element distance, pharmacophore element CA5 / Ligand-pharmacophore element distance, pharmacophore element CA6: Table A4-1; for d(N2,CA2) / d(O2,H3) / d(O2,N2) / d(N2,C2): Table A5-2 pharmacophore distance, S3/S4 region; for a(O1, O2, H3) / a(O1, O2, N2) / a(O2, N2, CA2) / a(O2, N2, C2): Table A6-2 pharmacophore angle
In short: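 E. coli-expressed CCP2-SP (±6His); apo crystals soaked 1–2× in inhibitor-containing crystallization solution; optional 20% glycerol cryoprotection, LN2 flash-cool; synchrotron data at 1.0 wavelength; MR using 1Q3X portions, partial refinement; single pose analysed when several seen.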

[1] = Table A5-1 pharmacophore: distance between elements, S2/S1 region
[2] = Table A7-1, between pharmacophore elements of the bound compound
[3] = Table A7-2, between pharmacophore elements of the bound compound
[4] = Table A8-6, nearest protein atom in cell to the left

MASP-2 CCP2-SP, sequence (O00187 445-686): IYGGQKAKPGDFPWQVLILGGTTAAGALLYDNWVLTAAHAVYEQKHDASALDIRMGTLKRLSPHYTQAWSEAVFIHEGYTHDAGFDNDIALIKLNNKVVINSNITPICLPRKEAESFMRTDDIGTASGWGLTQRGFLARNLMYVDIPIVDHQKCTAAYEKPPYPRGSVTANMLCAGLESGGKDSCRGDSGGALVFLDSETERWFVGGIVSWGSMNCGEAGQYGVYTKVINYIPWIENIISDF
MASP-2 CCP2-SP, sequence (O00187 364-432 partner): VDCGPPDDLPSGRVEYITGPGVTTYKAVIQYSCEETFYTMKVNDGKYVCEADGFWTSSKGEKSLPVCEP

Row | SMILES | Ligand-pharmacophore element distance, pharmacophore element C2 | Ligand-pharmacophore element distance, pharmacophore element C3 | Ligand-pharmacophore element distance, pharmacophore element C4 | Ligand-pharmacophore element distance, pharmacophore element C5 | Ligand-pharmacophore element distance, pharmacophore element C6 | Ligand-pharmacophore element distance, pharmacophore element C7 | Ligand-pharmacophore element distance, pharmacophore element CA1 | Ligand-pharmacophore element distance, pharmacophore element CA2 | Ligand-pharmacophore element distance, pharmacophore element CA3 | Ligand-pharmacophore element distance, pharmacophore element CA4 | Ligand-pharmacophore element distance, pharmacophore element CA5 | Ligand-pharmacophore element distance, pharmacophore element CA6 | d(CA1,O1) [1] | d(CA1,O2) [1] | d(H4,O1) [1] | d(H4,O2) [1] | d(O1,O2) [1] | d(N2,CA2) | d(O2,H3) | d(O2,N2) | further results
1 | C[C@H](NC(=O)[C@H]1C[C@@H](c2ccccc2)CN1)C(=O)NCc1ccc2c(N)nccc2c1.Cl.Cl [1089_A] | 0 | 0 | 0 | 0 | 0 | 0 | 1 | 0.89 | 0 | 0 | 0 | 0 | 5.75 | 5.19 | 3.13 | 3.70 | 3.34 | 5.10 | 5.94 | 2.66 | a(CA1, O1, O2) (Table A6-1 pharmacophore angle): 98.23; a(O1, O2, H4) (Table A6-1 pharmacophore angle): 122.16; a(O1, O2, H3): 153.00; a(O1, O2, N2): 141.72; a(O2, N2, CA2): 154.37; Pharmacophore torsion angle a(H4, O1, O2, H3) [2]: 88.95; Pharmacophore torsion angle a(H4, O1, O2, N2) [2]: −175.67; Pharmacophore torsion angle a(O1, H4, O2, CA1) [2]: −95.88; Pharmacophore torsion angle a(O1, O2, N2, CA2) [3]: 137.41; Pharmacophore protein distance to MET_658 (first MET_658 column) (Table A8-6, 6th residue column, nearest protein atom in cell to the left): 2.61; Pharmacophore protein distance to MET_658 (second MET_658 column) (Table A8-6, 9th residue column, nearest protein atom in cell to the left): 3.31; Pharmacophore protein distance to GLY_528 [4]: 3.59; Pharmacophore protein distance to PHE_529 [4]: 2.81; Pharmacophore protein distance to PRO_608 [4]: 3.90; Pharmacophore protein distance to SER_611 [4]: 2.79; Pharmacophore protein distance to TRP_655 (Table A8-6, pharmacophore elements C6, CA3, O3, H1, nearest protein atom in cell to the left): 3.57
2 | Cc1nc(N)ccc1CNC(=O)[C@H](C)NC(=O)[C@H]1C[C@@H](c2cccc3ccccc23)CCN1.Cl.Cl [1297_4] | 0.31 | 0.18 | 0 | 0 | 0 | 0 | 0.48 | 0.24 | 0 | 0.98 | 0 | 0 | 4.44 | 3.67 | 4.35 | 3.67 | 3.50 | 5.72 | 4.02 | 2.76 | d(C3,CA1) [1]: 2.87; d(CA1,N1)2 [1]: 1.37; d(N2,C2): 1.47; a(C3, CA1, O1) (Table A6-1 pharmacophore angle): 149.60; a(CA1, O1, O2) (Table A6-1 pharmacophore angle): 103.60; a(O1, O2, H4) (Table A6-1 pharmacophore angle): 129.06; a(N1, CA1, O1) b) (Table A6-1 pharmacophore angle, Methyl-amino-pyridine compounds): 174.41; a(O1, O2, H3): 145.24; a(O1, O2, N2): 143.80; a(O2, N2, C2): 131.10; a(O2, N2, CA2): 156.08; Pharmacophore torsion angle a(C3, CA1, O1, H4) [2]: 28.23; Pharmacophore torsion angle a(H4, O1, O2, H3) [2]: 51.40; Pharmacophore torsion angle a(H4, O1, O2, N2) [2]: 142.36; Pharmacophore torsion angle a(N1, CA1, O1, H4) [2]: 26.25; Pharmacophore torsion angle a(O1, H4, O2, CA1) [2]: −89.51; Pharmacophore torsion angle a(O1, O2, N2, C2) [2]: 110.29; Pharmacophore torsion angle a(O1, O2, N2, CA2) [3]: 126.11; Pharmacophore torsion angle a(O1, O2, N2, CA4) [3]: 105.94
3 | C[C@H](NC(=O)[C@H]1C[C@@H](c2ccccc2)CCN1)C(=O)NCc1cc(Cl)ccc1O.Cl [1078_16] | 0.64 | 0 | 0 | 0.42 | 0 | 0 | 1.49 | 0.49 | 0 | 0 | 0 | 0 | 4.42 | 4.54 | 2.20 | 2.69 | 3.11 | 5.80 | 2.96 | 2.90 | d(CA1,C5) [1]: 3.13; d(CA1,O4) [1]: 2.74; d(O4,H2) [1]: 0.97; d(N2,C2): 1.49; a(C5, CA1, O1) (Table A6-1 pharmacophore angle): 161.46; a(CA1, O1, O2) (Table A6-1 pharmacophore angle): 112.44; a(CA1, O4, H2) (Table A6-1 pharmacophore angle): 126.68; a(O1, CA1, O4) (Table A6-1 pharmacophore angle): 67.40; a(O1, O2, H4) (Table A6-1 pharmacophore angle): 101.76; a(O1, O2, H3): 140.06; a(O1, O2, N2): 144.54; a(O2, N2, C2): 122.62; a(O2, N2, CA2): 154.31; Pharmacophore torsion angle a(C5, CA1, O1, H4) [2]: 14.30; Pharmacophore torsion angle a(H4, O1, O2, H3) [2]: −119.50; Pharmacophore torsion angle a(H4, O1, O2, N2) [2]: −111.94; Pharmacophore torsion angle a(O1, H4, O2, CA1) [2]: −58.07; Pharmacophore torsion angle a(O1, O2, N2, C2) [2]: 136.30; Pharmacophore torsion angle a(O1, O2, N2, CA2) [3]: 139 28
4 | C[C@H](NC(=O)[C@H]1C[C@H](Cc2ccccc2)CN1)C(=O)NCc1ccc(C(=N)N)cc1.Cl.Cl [1306_1] | 0 | 0 | 0 | 0 | 0 | 0 | 0.05 | 0.6 | 0 | 0 | 0 | 0 | 4.38 | 4.22 | 4.25 | 5.09 | 3.06 | 6.06 | 5.26 | 2.66 | d(CA1,N1) [1]: 3.54; a(CA1, O1, O2) (Table A6-1 pharmacophore angle): 107.94; a(O1, O2, H4) (Table A6-1 pharmacophore angle): 143.05; A(N1, CA1, O1) a) (Table A6-1 pharmacophore angle, all compounds with protonatable center N1 except Methyl-amino-pyridine): 158.44; a(O1, O2, H3): 152.11; a(O1, O2, N2): 135.46; a(O2, N2, CA2): 155.89; Pharmacophore torsion angle a(H4, O1, O2, H3) [2]: 36.21; Pharmacophore torsion angle a(H4, O1, O2, N2) [2]: 120.80; Pharmacophore torsion angle a(N1, CA1, O2, H4) [2]: 106.51; Pharmacophore torsion angle a(O1, H4, O2, CA1) [2]: −170.32; Pharmacophore torsion angle a(O1, O2, N2, CA2) [3]: 136.58

— patent US12195427B2, “MASP-2 inhibitors and methods of use” (priority 2018, dated 2025)
